Assay results from ChEMBL document CHEMBL3745641, “Discovery and Structure-Guided Optimization of Diarylmethanesulfonamide Disrupters of Glucokinase-Glucokinase Regulatory Protein (GK-GKRP) Binding: Strategic Use of a N → S (nN → σ*S-X) Interaction for Conformational Constraint” (J Med Chem, 2015).

Assays:
[1] = Intrinsic clearance in rat liver microsomes after 30 mins; format: ADME; settings: read-out: CLH
[2] = Apparent permeability from apical to basolateral side in pig LLC-PK1 cells; format: ADME, cell-based, Sus scrofa
[3] = molecular target: T1, Glucokinase regulatory protein (Mus musculus, UniProt Q91X44); test: Inhibition of glucokinase-GKRP binding interaction in mouse hepatocytes assessed as induction of glucokinase translocation; format: cell-based, Hepatocyte
T1 sequence (Q91X44 whole entry): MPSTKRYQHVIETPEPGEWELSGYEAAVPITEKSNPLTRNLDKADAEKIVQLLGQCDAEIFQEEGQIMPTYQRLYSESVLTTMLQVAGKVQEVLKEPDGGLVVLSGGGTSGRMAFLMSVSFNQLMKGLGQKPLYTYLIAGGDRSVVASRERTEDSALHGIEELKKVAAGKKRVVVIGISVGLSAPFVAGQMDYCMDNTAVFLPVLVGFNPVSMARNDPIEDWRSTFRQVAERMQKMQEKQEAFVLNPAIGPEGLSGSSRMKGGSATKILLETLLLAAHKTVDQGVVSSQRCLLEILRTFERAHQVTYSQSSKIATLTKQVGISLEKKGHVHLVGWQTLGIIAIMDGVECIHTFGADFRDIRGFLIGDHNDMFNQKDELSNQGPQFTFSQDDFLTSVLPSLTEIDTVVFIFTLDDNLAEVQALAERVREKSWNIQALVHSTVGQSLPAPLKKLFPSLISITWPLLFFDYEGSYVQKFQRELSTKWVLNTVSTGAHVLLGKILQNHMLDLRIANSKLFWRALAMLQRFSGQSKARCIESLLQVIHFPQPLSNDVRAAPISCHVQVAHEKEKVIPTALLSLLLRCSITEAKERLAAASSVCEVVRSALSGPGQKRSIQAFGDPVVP

[4] = Plasma concentration in Sprague-Dawley rat at 10 mg/kg, po qd after 6 hrs; format: ADME, organism-based
[5] = Plasma concentration in Sprague-Dawley rat at 100 mg/kg, po qd after 6 hrs; format: ADME, organism-based
[6] = Plasma protein binding in rat by rapid equilibrium dialysis method; format: ADME, cell-free; settings: read-out: PPB
[7] = Clearance in Sprague-Dawley rat at 2 mg/kg, iv; format: ADME, organism-based; settings: in vivo
[8] = Volume of distribution at steady state in Sprague-Dawley rat at 2 mg/kg, iv; format: ADME, organism-based; settings: in vivo, read-out: Vdss
[9] = Half life in Sprague-Dawley rat at 2 mg/kg, iv; format: ADME, organism-based; settings: in vivo
[10] = Cmax in Sprague-Dawley rat at 10 mg/kg, po; format: ADME, organism-based; parameters: dose 10 mg/kg, route oral; settings: in vivo
[11] = Tmax in Sprague-Dawley rat at 10 mg/kg, po; format: ADME, organism-based; settings: in vivo
[12] = Oral bioavailability in Sprague-Dawley rat at 10 mg/kg; format: ADME, organism-based; settings: in vivo
Plasma = test: Drug uptake in po dosed Sprague-Dawley rat plasma administered qd measured after 6 hrs; format: ADME, organism-based; settings: in vivo
[13] = Plasma concentration in Sprague-Dawley rat at 10 mg/kg, po qd at 24 hrs; format: ADME, organism-based
[14] = Plasma concentration in Sprague-Dawley rat at 100 mg/kg, po qd at 24 hrs; format: ADME, organism-based
[15] = Drug uptake in db/db mouse blood at 10 mg/kg, po qd after 6 hrs; format: ADME, organism-based; settings: whole blood, read-out: Drug uptake
[16] = Drug uptake in db/db mouse blood at 30 mg/kg, po qd after 6 hrs; format: ADME, organism-based; settings: whole blood, read-out: Drug uptake
[17] = Drug uptake in db/db mouse blood at 100 mg/kg, po qd after 6 hrs; format: ADME, organism-based; settings: whole blood, read-out: Drug uptake
Blood = test: Drug uptake in po dosed db/db mouse blood administered qd measured after 6 hrs; format: ADME, organism-based; settings: in vivo
Mus musculus [18] = test: Antidiabetic activity in db/db mouse assessed as reduction in blood glucose level at 100 mg/kg, po qd after 3 hrs relative to control; format: functional; parameters: scale not given: the % may be the effect or the level left
Mus musculus [19] = test: Antidiabetic activity in db/db mouse assessed as reduction in blood glucose level at 100 mg/kg, po qd after 6 hrs relative to control; format: functional; parameters: scale not given: the % may be the effect or the level left
[20] = Drug uptake in db/db mouse blood at 100 mg/kg, po qd after 3 hrs; format: ADME, organism-based; settings: whole blood, read-out: Drug uptake
Hexokinase-4 [21] = molecular target: T2, Hexokinase-4 (Homo sapiens, UniProt P35557); test: Binding affinity to human glucokinase by surface plasmon resonance analysis
T2 sequence (P35557 whole entry): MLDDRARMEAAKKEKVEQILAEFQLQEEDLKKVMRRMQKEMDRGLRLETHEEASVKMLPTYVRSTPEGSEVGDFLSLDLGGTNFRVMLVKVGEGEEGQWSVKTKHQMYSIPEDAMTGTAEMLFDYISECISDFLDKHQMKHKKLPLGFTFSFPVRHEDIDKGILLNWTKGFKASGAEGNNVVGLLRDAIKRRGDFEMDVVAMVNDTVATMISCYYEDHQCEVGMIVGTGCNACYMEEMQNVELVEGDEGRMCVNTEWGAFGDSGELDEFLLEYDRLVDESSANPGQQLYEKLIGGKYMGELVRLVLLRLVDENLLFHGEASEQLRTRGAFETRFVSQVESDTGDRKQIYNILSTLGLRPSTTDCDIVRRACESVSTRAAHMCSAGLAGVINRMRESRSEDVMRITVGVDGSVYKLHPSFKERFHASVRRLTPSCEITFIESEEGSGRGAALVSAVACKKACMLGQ

Hexokinase-4 [22] = molecular target: T2, Hexokinase-4; test: Effect on human glucokinase activity after 60 mins by luciferase-based luminescence assay in absence of human GKRP

Row | Structure (SMILES) | microsomal CLint [1] | Papp A→B [2] | EC50 [3] | also measured
1 | C[C@@](O)(c1ccnc(-c2cccc3cc([C@H](NS(=O)(=O)C4CC4)c4ccccc4Cl)sc23)c1)C(F)(F)F | < 14 µL/min/mg | < 1.8 ×10⁻⁶ cm/s |  | 
2 | CC(C)(O)c1ccnc(-c2cccc3cc([C@H](NS(=O)(=O)C4CC4)c4nc(N)ccc4Cl)sc23)c1 | 130 µL/min/mg | 11 ×10⁻⁶ cm/s |  | 
3 | COc1ccc(S(=O)(=O)N[C@@H](c2cc3ccccc3s2)c2ccccc2Cl)cc1 | > 399 µL/min/mg |  | > 12.5 µM | 
4 | CC(C)(O)c1ccnc(-c2cccc3cc([C@H](NS(=O)(=O)C4CC4)c4nc(N)ncc4Cl)sc23)c1 | 28 µL/min/mg | 19 ×10⁻⁶ cm/s |  | concentration at 6 h [4]: 2900 nM; concentration at 6 h [5]: 23000 nM; fraction unbound [6]: 0.01; clearance [7]: 4.67 mL/min/kg; Vd [8]: 1.3 L/kg; half-life [9]: 3 h; Cmax [10]: 1900 nM; Tmax [11]: 4.7 h; bioavailability [12]: 25%; Drug uptake (Plasma): Dose-dependent effect; concentration at 24 h [13]: 200 nM; concentration at 24 h [14]: 210 nM; concentration at 6 h [15]: 1200 nM; concentration at 6 h [16]: 4100 nM; concentration at 6 h [17]: 19000 nM; Drug uptake (Blood): Dose-dependent effect
5 | CC(C)(O)c1ccnc(-c2cccc3cc([C@H](NS(=O)(=O)C4CC4)c4c(Cl)cnc(N)c4F)sc23)c1 | 26 µL/min/mg | 16 ×10⁻⁶ cm/s |  | fraction unbound [6]: 0.01; clearance [7]: 6 mL/min/kg; Vd [8]: 1.6 L/kg; half-life [9]: 3.1 h; Cmax [10]: 2800 nM; Tmax [11]: 3.3 h; bioavailability [12]: 46%; Drug uptake (Plasma): Dose-dependent effect; concentration at 24 h [13]: 220 nM; concentration at 24 h [14]: 6300 nM; concentration at 6 h [17]: 21000 nM; Activity (Mus musculus [18]): 45%; Activity (Mus musculus [19]): 33%; concentration at 3 h [20]: 25000 nM
6 | CC(C)(O)c1ccnc(-c2cccc3cc([C@H](NS(=O)(=O)C4CC4)c4ccccc4Cl)sc23)c1 | 34 µL/min/mg | 7.5 ×10⁻⁶ cm/s |  | 
7 | O=S(=O)(N[C@@H](c1nc2cccnc2s1)c1ccccc1Cl)c1ccc2c(c1)OCCCO2 | > 399 µL/min/mg |  | 3.3 µM | 
8 | CC(C)(O)c1ccnc(-c2cccc3cc([C@H](NS(=O)(=O)C4CC4)c4nc(N)c(F)cc4Cl)sc23)c1 | 28 µL/min/mg | 7.8 ×10⁻⁶ cm/s |  | 
9 | O=S(=O)(N[C@@H](c1cc2ccccc2s1)c1ccccc1Cl)c1ccc2c(c1)OCCCO2 | > 399 µL/min/mg |  |  | Kd (Hexokinase-4 [21]): > 10 µM
10 | CC(C)(O)c1ccnc(-c2cccc3cc([C@H](NS(=O)(=O)C4CC4)c4cc(N)ncc4Cl)sc23)c1 | 67 µL/min/mg | 19 ×10⁻⁶ cm/s |  | 
11 | O=S(=O)(N[C@@H](c1cc2ccccc2s1)c1ccccc1Cl)c1ccc2c(c1)OCO2 | > 399 µL/min/mg |  | > 12.5 µM | 
12 | O=S(=O)(N[C@H](c1ccccc1)c1cc2ccccc2o1)c1ccc2c(c1)OCCCO2 | > 399 µL/min/mg |  |  | 
13 | O=S(=O)(N[C@@H](c1cc2ccccc2s1)c1ccccc1Cl)c1ccc2c(c1)OCCO2 | > 399 µL/min/mg |  | > 12.5 µM | 
14 | O=S(=O)(NC(c1ccccc1)c1cc2ccccc2o1)c1ccc2c(c1)OCCCO2 (stereo not given) |  |  |  | EC50 (Hexokinase-4 [22]): > 100 µM; Kd (Hexokinase-4 [21]): > 20 µM
15 | C[C@@](O)(c1cccc(-c2cccc3cc([C@H](NS(=O)(=O)C4CC4)c4ccccc4Cl)sc23)c1)C(F)(F)F | < 14 µL/min/mg |  |  | 
16 | C[C@](O)(c1cccc(-c2cccc3cc([C@H](NS(=O)(=O)C4CC4)c4ccccc4Cl)sc23)c1)C(F)(F)F | < 14 µL/min/mg |  |  | 
17 | O=S(=O)(N[C@@H](c1cc2ccccc2s1)c1ccccc1Cl)c1ccccc1 | > 399 µL/min/mg |  | > 12.5 µM | 
18 | O=S(=O)(N[C@@H](c1cc2ccccc2s1)c1ccccc1Cl)C1CC1 | > 399 µL/min/mg |  | > 12.5 µM | 
19 | CC(C)(O)c1ccnc(-c2cccc3cc([C@H](NS(=O)(=O)C4CC4)c4c(F)cccc4Cl)sc23)c1 | 18 µL/min/mg | 9.5 ×10⁻⁶ cm/s |  | 
20 | C[C@](O)(c1ccnc(-c2cccc3cc([C@H](NS(=O)(=O)C4CC4)c4ccccc4Cl)sc23)c1)C(F)(F)F | < 14 µL/min/mg | 2.4 ×10⁻⁶ cm/s |  | 
21 | O=S(=O)(N[C@@H](c1cc2ccccc2s1)c1ccccc1Cl)c1ccc2c(c1)OCC(F)(F)CO2 | > 399 µL/min/mg |  | > 12.5 µM | 
22 | O=S(=O)(N[C@@H](c1cc2ccccc2o1)c1ccccc1Cl)c1ccc2c(c1)OCCCO2 | > 399 µL/min/mg |  | 6.3 µM | 
23 | O=S(=O)(N[C@@H](c1cc2ccccc2s1)c1ccccc1Cl)c1ccc2c(c1)OCC(O)CO2 (mixture of isomers) | 304 µL/min/mg |  | 4.3 µM | 
24 | O=S(=O)(N[C@@H](c1cc2ccccc2s1)c1ccccc1Cl)c1ccc2c(c1)OCC(F)CO2 (mixture of isomers) | > 399 µL/min/mg |  | 4.1 µM | 
